Data on 14 compounds can be found in patent publication US20250051350A1, “Dihydroartemisinin derivatives and the treatment of fibrotic diseases” (GreenStone Biosciences, Inc., priority 2023, published 2025).

In general, fraction unbound refers to the share of the substance not bound to proteins or other matrix. Low values mean extensive binding, high ones weak binding. As a reminder, the IC50 is the point on the concentration scale where inhibition reaches its midpoint.

Data set [1] can be described thus: Intravenous and oral pharmacokinetics in mice. It is filed as in vivo. The conditions noted are these: male C57BL/6J mice; for IV AUC0-last / IV Clearance / IV T1/2 / IV VD,ss / PO AUC0-last / PO T1/2: plasma. As for the experimental part: The intravenous (IV) and oral (PO) pharmacokinetics of the PT compounds were measured in 6-10 week-old male C57BL/6J mice, using three mice/group. The test compounds were formulated in an appropriate water-based vehicle to give a clear solution for IV administration, or a clear solution or uniform suspension for PO administration. Animals were dosed within 4 hours of the preparation of the formulations; with the dose volume being determined by the animal's body weight measured on the morning of the dosing day. Blood samples (about 25 μL per time point) were taken at 5 and 15 minutes and 1, 3, and 5 hours after dosing, into pre-chilled EDTA-K2 tubes and kept on wet ice until centrifugation. The tubes were centrifuged at 3200×g at about 4° C. for 10 minutes, and the plasma analyzed by LC-MS/MS.

Data set [2] is described as follows: in vitro. It is filed as in vitro ADME. The conditions noted are these: for fraction unbound: plasma. Here is the method: Plasma protein binding assays were conducted in triplicate for compounds PT-2, PT-14, PT-28, and PT-30, with artesunate, DHA, and warfarin as comparators.
Data set [3] relates to Induced pluripotent stem cell-derived cardiac fibroblasts (ACTA2-GFP). Nature of the data set: Antifibrotic effects in TGF-β-activated iPSC-derived cardiac fibroblasts (ACTA2-GFP fluorescence). In kind it is cell-based. The conditions noted are these: for IC50 / reduction in fluorescence (fibrotic marker ACTA2-GFP): activated with TGF-β, 48 hours; for IC50: simultaneous treatment, ACTA2-GFP fluorescence, read-out: IC50, reduction in fluorescence; for reduction in fluorescence (fibrotic marker ACTA2-GFP): various concentrations. An excerpt: Induced pluripotent stem cell-derived cardiac fibroblasts were constructed containing a fusion of the alpha-smooth muscle actin to the green fluorescent protein (ACTA2-GFP) construct. ACTA2 is a myofibroblast marker, such that the fibroblasts fluoresce with an intensity dependent on the extent of fibrosis.

Data set [4] relates to bleomycin-induced pulmonary fibrosis model. To be noted: bleomycin-induced pulmonary fibrosis model in rats; cited from earlier work.
In data set [5] the test system is MD2 signaling pathway (HEK Blue-TLR4 cells). Put plainly: HEK Blue-TLR4 assay (MD2 pathway). It is filed as cell-based. To be noted: 1 h preincubation, 10 ng/mL lipopolysaccharide, read after 20 hours at 655 nm. Here is the method:
HEK Blue-TLR4 cells were plated in detection media, preincubated with vehicle or PT-2, PT-14, or PT-30 dissolved in vehicle (with artesunate, DHA, and artemisinin comparators) for 1 h, then co-stimulated with 10 ng/mL lipopolysaccharide. Reporter activity was read after 20 hours at 655 nm in a spectrophotometer. The PT compounds were active in this assay, showing that they inhibit the MD2 signaling pathway.

Where two headings read alike, the source gives them in different places.

As to `CC1CCC2C(C)C(OC(=O)N3CC(C)(N)C3)OC3OC4(C)CCC1C32OO4` (stereo not shown) [PT-24, DHA 3-amino-3-methylazetidine-1-carboxylate], in data set [1], the “IV AUC0-last” value was determined as 2200 ng·h/mL, the “IV Clearance” value worked out at 77 mL/min/kg, the “IV T1/2” value was 15.6 min and the “IV VD,ss” value was 2.2 L/kg. Besides, in data set [1], the “PO Bioavailability” value was 123%, the “PO AUC0-last” value was found to be 24300 ng·h/mL and the “PO T1/2” value came out at 67.2 min.

Turning to `CC(=O)CC(c1ccccc1)c1c(O)c2ccccc2oc1=O` (stereo not shown) [warfarin], the recovery in data set [2] (human) was found to be 91.1%; in data set [2] (mouse), 94.5%. The fraction unbound was determined as 0.003 in data set [2] (human) and 0.007 in data set [2] (mouse).

In the case of `CC1CCC2C(C)C(OC(=O)N3CC(C)(C(=O)N(C)C)C3)OC3OC4(C)CCC1C32OO4` (stereo not shown) [PT-29, DHA 3-methyl-3-(dimethylcarbamoyl)azetidine-1-carboxylate], in data set [1], the “IV AUC0-last” value turned out to be 2000 ng·h/mL, the “IV Clearance” value stood at 82 mL/min/kg, the “IV T1/2” value worked out at 7.8 min and the “IV VD,ss” value is 0.9 L/kg. Also, in data set [1], the “PO Bioavailability” value was 34%, the “PO AUC0-last” value came to 6800 ng·h/mL and the “PO T1/2” value was found to be 64.8 min.

Consider `CC(CO)C(=O)OC1OC2OC3(C)CCC4C(C)CCC(C1C)C24OO3` (stereo not shown) [PT-1, DHA 3-hydroxy-2-methylpropionate], for which, in data set [1], the “IV AUC0-last” value came to 100 ng·h/mL, the “IV Clearance” value was 1280 mL/min/kg, the “IV T1/2” value turned out to be 7.8 min and the “IV VD,ss” value was found to be 9.0 L/kg. Moreover, in data set [1], the “PO Bioavailability” value was 1.3%, the “PO AUC0-last” value stood at 20 ng·h/mL and the “PO T1/2” value amounted to 22.2 min. Moreover, the IC50 in data set [3] worked out at 2.3 µM.

As to `CC1CCC2C(C)C(OC(=O)N3CC(C)(C(=O)O)C3)OC3OC4(C)CCC1C32OO4` (stereo not shown) [PT-25, DHA 3-carboxy-3-methylazetidine-1-carboxylate], in data set [1], the “IV AUC0-last” value came out at 2200 ng·h/mL, the “IV Clearance” value was 74 mL/min/kg, the “IV T1/2” value was determined as 16.2 min and the “IV VD,ss” value is 1.3 L/kg. For the same compound, in data set [1], the “PO Bioavailability” value is 17%, the “PO AUC0-last” value turned out to be 3700 ng·h/mL and the “PO T1/2” value turned out to be 113 min.

On to `CC1CCC2C(C)C(OC(=O)CC(C)(C)O)OC3OC4(C)CCC1C32OO4` (stereo not shown) [PT-4, DHA 3-hydroxy-3-methylbutanoate], for which, in data set [1], the “IV AUC0-last” value worked out at 600 ng·h/mL, the “IV Clearance” value is given as 280 mL/min/kg, the “IV T1/2” value came to 6.6 min and the “IV VD,ss” value was 2.0 L/kg. Besides, in data set [1], the “PO Bioavailability” value came to 11%, the “PO AUC0-last” value came out at 500 ng·h/mL and the “PO T1/2” value came out at 10.8 min. Moreover, the IC50 in data set [3] was determined as 5.6 µM.

`C[C@H]1[C@H](OC(=O)CCC(=O)O)O[C@@H]2O[C@@]3(C)CC[C@H]4[C@H](C)CC[C@@H]1[C@@]24OO3` [artesunate]: in data set [2] (human), the recovery was 98% and the fraction unbound turned out to be 0.233. In data set [2] (mouse), this compound displayed a recovery of 53.4% and a fraction unbound of 0.278. In data set [3] (Cardiac fibroblast), the IC50 turned out to be 2.8 µM. The “reduction in fluorescence (fibrotic marker ACTA2-GFP)” value in data set [3] is on record as “dose-dependent reduction in fluorescence”. Besides, the antifibrotic activity entry in data set [4] is recorded as “active as an antifibrotic agent”.

With `CC1CCC2C(C)C(OC(=O)N3CC(O)C3)OC3OC4(C)CCC1C32OO4` (stereo not shown) [PT-13, DHA 3-hydroxyazetidine-1-carboxylate], in data set [1], the “IV AUC0-last” value is 2200 ng·h/mL, the “IV Clearance” value was found to be 76 mL/min/kg, the “IV T1/2” value came to 7.2 min and the “IV VD,ss” value is 0.9 L/kg. In data set [1], the “PO Bioavailability” value is listed as 64%, the “PO AUC0-last” value was 14100 ng·h/mL and the “PO T1/2” value was 41.4 min. The IC50 in data set [3] amounted to 2.6 µM.

For `CC1CCC2C(C)C(OC(=O)N3CC(C)(C(N)=O)C3)OC3OC4(C)CCC1C32OO4` (stereo not shown) [PT-27, DHA 3-methyl-3-carbamoylazetidine-1-carboxylate], in data set [1], the “IV AUC0-last” value was found to be 3300 ng·h/mL, the “IV Clearance” value turned out to be 47 mL/min/kg, the “IV T1/2” value is 15 min and the “IV VD,ss” value was found to be 1.0 L/kg. Also, in data set [1], the “PO Bioavailability” value is on record as 41%, the “PO AUC0-last” value was 14400 ng·h/mL and the “PO T1/2” value is 78 min.

As for `C[C@H]1[C@@H](OC(=O)C(C)(C)CO)O[C@@H]2O[C@@]3(C)CC[C@H]4[C@H](C)CC[C@@H]1[C@@]24OO3` [PT-2, DHA 3-hydroxy-2,2-dimethylpropanoate], in data set [1], the “IV AUC0-last” value came to 1200 ng·h/mL, the “IV Clearance” value turned out to be 140 mL/min/kg, the “IV T1/2” value stood at 6 min and the “IV VD,ss” value is on record as 1.3 L/kg. In addition, in data set [1], the “PO Bioavailability” value is given as 27% and the “PO AUC0-last” value is 3200 ng·h/mL. Also, the “activity in HEK Blue-TLR4 reporter assay (inhibition of MD2 signaling pathway)” value in data set [5] is on record as “active”. In addition, the IC50 in data set [3] amounted to 0.88 µM.

As to `CNC(=O)C1(C)CN(C(=O)O[C@H]2O[C@@H]3O[C@@]4(C)CC[C@H]5[C@H](C)CC[C@@H]([C@H]2C)[C@@]35OO4)C1` [PT-28, DHA 3-methyl-3-(methylcarbamoyl)azetidine-1-carboxylate], in data set [1], the “IV AUC0-last” value is 4200 ng·h/mL, the “IV Clearance” value is reported as 38 mL/min/kg, the “IV T1/2” value worked out at 14.4 min and the “IV VD,ss” value worked out at 0.8 L/kg. In addition, in data set [1], the “PO Bioavailability” value is 112%, the “PO AUC0-last” value was found to be 48800 ng·h/mL and the “PO T1/2” value turned out to be 28.8 min. For the same compound, the “antifibrotic efficacy in this model” value in data set [3] (TGF-β-activated iPSC-derived cardiac fibroblasts) is recorded as “demonstrated antifibrotic efficacy”.

On to `C[C@H]1[C@@H](O)OC2O[C@@]3(C)CC[C@H]4[C@H](C)CC[C@@H]1[C@@]24OO3` (stereo in doubt) [DHA, (3R,5aS,6R,8aS,9R,12S,12aR)-decahydro-3,6,9-trimethyl-3,12-epoxy-12H-pyrano[4,3-j]-1,2-benzodioxepin-10-ol], for which, in data set [2] (human), the recovery was determined as 102% and the fraction unbound turned out to be 0.108. Further, in data set [2] (mouse), the recovery worked out at 105% and the fraction unbound was determined as 0.1. For the same compound, the “reduction in fluorescence (fibrotic marker ACTA2-GFP)” value in data set [3] is listed as “dose-dependent reduction in fluorescence”.

`CC1CCC2C(C)C(OC(=O)N(C)CCO)OC3OC4(C)CCC1C32OO4` (stereo not shown) [PT-20, DHA (2-hydroxyethyl)(methyl)carbamate]: in data set [1], the “IV AUC0-last” value was determined as 2400 ng·h/mL, the “IV Clearance” value came to 69 mL/min/kg, the “IV T1/2” value is 14.4 min and the “IV VD,ss” value turned out to be 0.8 L/kg. For the same compound, in data set [1], the “PO Bioavailability” value turned out to be 73%, the “PO AUC0-last” value was determined as 17700 ng·h/mL and the “PO T1/2” value amounted to 31.8 min.

Turning to `CC1CCC2C(C)C(OC(=O)N3CC(C)(O)C3)OC3OC4(C)CCC1C32OO4` (stereo not shown) [PT-14, DHA 3-hydroxy-3-methylazetidine-1-carboxylate], in data set [1], the “IV AUC0-last” value came out at 2200 ng·h/mL, the “IV Clearance” value turned out to be 75 mL/min/kg, the “IV T1/2” value is 10.8 min and the “IV VD,ss” value is 1.1 L/kg. Also, in data set [1], the “PO Bioavailability” value amounted to 92%, the “PO AUC0-last” value was 20500 ng·h/mL and the “PO T1/2” value came to 39.6 min. Further, in data set [5], the “activity in HEK Blue-TLR4 reporter assay (inhibition of MD2 signaling pathway)” value was “active”. Besides, the IC50 in data set [3] turned out to be 0.57 µM.
